The record followed here is US9481654B2, “Compositions and methods for inhibition of the JAK pathway” (Rigel Pharmaceuticals, Inc., priority 2006, dated 2016).

The structures appear in SMILES notation.

Assay [1] concerns IL-4 stimulated CD23 upregulation in human Ramos B cells (JAK-1/JAK-3, Stat-6). Put plainly: Assay for Ramos B-Cell Line Stimulated with IL-4 (CD23 upregulation, FACS). Type of assay: cell-based. The following applies: Table III Example 3. A digest of the protocol: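 Log-phase Ramos B cells (5×10^4 per point, RPMI with 5% serum) pre-incubated with compound or DMSO 1 h at 37° C, then stimulated with IL-4 at 50 units/mL final for 20-24 h. CD23 upregulation measured by staining and flow cytometry.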

For assay [2], the system named is primary human T-cells (IL-2 induced proliferation, JAK-1/JAK-3, Stat-5). The experiment in a line: Primary Human T-Cell Proliferation Assay Stimulated with IL-2 (CellTiter-Glo). Type of assay: cell-based. To be noted: Table III Example 4. A digest of the protocol:
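Pre-activated peripheral-blood T-cells (TCR/CD28 stimulated, IL-2-maintained) were IL-2-depleted, then plated in Yssel's medium with 80 U/mL IL-2 in the cell suspension and compound in duplicate. Proliferation ran 72 h at 37 °C; viable cells quantified by CellTiter-Glo ATP luminescence, with IL-2-omitted wells as unstimulated control.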

As to `C#CCNS(=O)(=O)Cc1ccc(Nc2nc(Nc3cccc(S(N)(=O)=O)c3)ncc2F)cc1` [Compound I-4, N2-(3-Aminosulfonylphenyl)-5-fluoro-N4-[4-(prop-2-ynylaminosulfonylmethyl)phenyl]-2,4-pyrimidinediamine], the IC50 in assay [1] (Homo sapiens, Ramos) was 141 nM; in assay [2] (Homo sapiens, T-cell) it was 109 nM.
For the compound `C#CCNS(=O)(=O)Cc1ccc(Nc2nc(Nc3ccc(C)c(S(N)(=O)=O)c3)ncc2F)cc1` [Compound I-5, N2-(3-Aminosulfonyl-4-methylphenyl)-5-fluoro-N4-[4-(prop-2-ynylaminosulfonylmethyl)phenyl]-2,4-pyrimidinediamine], the IC50 in assay [1] (Homo sapiens, Ramos) was determined as 130 nM; in assay [2] (Homo sapiens, T-cell), 120 nM.
As for `CCS(=O)(=O)NCc1ccc(Nc2nc(Nc3ccc(C)c(S(N)(=O)=O)c3)ncc2F)cc1` [Compound I-10, N2-(3-aminosulfonyl-4-methyl)phenyl-N4-(4-ethylsulfonylaminomethyl)phenyl-5-fluoro-2,4-pyrimidinediamine], the concentration for half-maximal inhibition (IC50) in assay [1] turned out to be 94 nM; in assay [2], 60.6 nM.
Taken in the same sequence, the figures for `CCS(=O)(=O)NCc1cccc(Nc2nc(Nc3cccc(S(N)(=O)=O)c3)ncc2F)c1` [Compound I-12, N2-(3-aminosulfonyl)phenyl-N4-(3-ethylsulfonylaminomethyl)phenyl-5-fluoro-2,4-pyrimidinediamine] were 170 nM and 158 nM.
Taken in the same sequence, the figures for `CCS(=O)(=O)NCc1cccc(Nc2nc(Nc3ccc(C)c(S(N)(=O)=O)c3)ncc2F)c1` [Compound I-13, N2-(3-aminosulfonyl-4-methyl)phenyl-N4-(3-ethylsulfonylaminomethyl)phenyl-5-fluoro-2,4-pyrimidinediamine] were 136 nM and 197 nM.
Regarding `CCS(=O)(=O)NCCc1ccc(Nc2nc(Nc3ccc(C)c(S(N)(=O)=O)c3)ncc2F)cc1` [Compound I-16, N2-(3-aminosulfonyl-4-methyl)phenyl-N4-[4-(2-ethylsulfonylamino)ethyl]phenyl-5-fluoro-2,4-pyrimidinediamine], the results for the IC50 in assay [1] and in assay [2] were 148 nM and 536 nM, respectively.
With `CCS(=O)(=O)NCc1ccc(Nc2nc(Nc3cccc(S(N)(=O)=O)c3)ncc2C)cc1` [Compound I-21, N2-(3-aminosulfonyl)phenyl-N4-(4-ethylsulfonylaminomethyl)phenyl-5-methyl-2,4-pyrimidinediamine], the IC50 in assay [1] stood at 81.2 nM; in assay [2], 58.9 nM.
Regarding `CCS(=O)(=O)N[C@@H](C)c1ccc(Nc2nc(Nc3cccc(S(N)(=O)=O)c3)ncc2F)cc1` [Compound I-27, N2-(3-aminosulfonyl)phenyl-N4-[4-(1S-ethylsulfonylamino)ethyl]phenyl-5-fluoro-2,4-pyrimidinediamine], the results for the IC50 in assay [1] and in assay [2] were 118 nM and 144 nM, respectively.
For `CCS(=O)(=O)N[C@H](C)c1ccc(Nc2nc(Nc3cccc(S(N)(=O)=O)c3)ncc2F)cc1` [Compound I-30, N2-(3-aminosulfonyl)phenyl-N4-[4-(1R-ethylsulfonylamino)ethyl]phenyl-5-fluoro-2,4-pyrimidinediamine], in that order: 74.3 nM and 153 nM.
`Cc1ccc(Nc2ncc(F)c(Nc3cccc(CNS(=O)(=O)C4CC4)c3)n2)cc1S(N)(=O)=O` [Compound I-34, N2-(3-aminosulfonyl-4-methyl)phenyl-N4-(3-cyclopropylsulfonylaminomethyl)phenyl-5-fluoro-2,4-pyrimidinediamine]: the values for the IC50 in assay [1] and in assay [2] were 184 nM and 484 nM, respectively.
For `Cc1ccc(Nc2ncc(F)c(Nc3ccc(CNS(=O)(=O)c4cccs4)cc3)n2)cc1S(N)(=O)=O` [Compound I-37, N2-(3-aminosulfonyl-4-methyl)phenyl-5-fluoro-N4-[4-(thiophen-2-yl)sulfonylaminomethyl]phenyl-2,4-pyrimidinediamine], in that order: 46.2 nM and 152 nM.
For `CCS(=O)(=O)NCCc1ccc(Nc2nc(Nc3cccc(S(N)(=O)=O)c3)ncc2C)cc1` [Compound I-39, N2-(3-aminosulfonyl)phenyl-N4-[4-(2-ethylsulfonylamino)ethyl]phenyl-5-methyl-2,4-pyrimidinediamine], in that order: 46.2 nM and 58 nM.
Taken in the same sequence, the figures for `CCS(=O)(=O)NCCc1ccc(Nc2nc(Nc3ccc(C)c(S(N)(=O)=O)c3)ncc2C)cc1` [Compound I-40, N2-(3-aminosulfonyl-4-methyl)phenyl-N4-[4-(2-ethylsulfonylamino)ethyl]phenyl-5-methyl-2,4-pyrimidinediamine] were 68.1 nM and 92.4 nM.
Regarding `Cc1ccc(Nc2ncc(C)c(Nc3ccc(CNS(=O)(=O)C4CC4)cc3)n2)cc1S(N)(=O)=O` [Compound I-47, N2-(3-aminosulfonyl-4-methyl)phenyl-N4-(4-cyclopropylsulfonylaminomethyl)phenyl-5-methyl-2,4-pyrimidinediamine], the values for the IC50 in assay [1] and in assay [2] were 28 nM and 36.2 nM, respectively.
Taken in the same sequence, the figures for `NS(=O)(=O)c1ccc(Nc2ncc(F)c(Nc3ccc(CNS(=O)(=O)CC(F)(F)F)cc3)n2)cc1` [Compound I-48, N2-(4-aminosulfonyl)phenyl-5-fluoro-N4-(4-trifluoroethylsulfonylaminomethyl)phenyl-2,4-pyrimidinediamine] were 263 nM and 758 nM.
Turning to `NS(=O)(=O)c1cccc(Nc2ncc(F)c(Nc3ccc(CNS(=O)(=O)CC(F)(F)F)cc3)n2)c1` [Compound I-49, N2-(3-aminosulfonyl)phenyl-5-fluoro-N4-(4-trifluoroethylsulfonylaminomethyl)phenyl-2,4-pyrimidinediamine], the IC50 in assay [1] was 46.8 nM; in assay [2], 38.3 nM.
`Cc1ccc(Nc2ncc(F)c(Nc3ccc(CNS(=O)(=O)CC(F)(F)F)cc3)n2)cc1S(N)(=O)=O` [Compound I-50, N2-(3-aminosulfonyl-4-methyl)phenyl-5-fluoro-N4-(4-trifluoroethylsulfonylaminomethyl)phenyl-2,4-pyrimidinediamine]: the IC50 amounted to 34.3 nM in assay [1] and 62.7 nM in assay [2].
For the compound `Cc1cnc(Nc2cccc(S(N)(=O)=O)c2)nc1Nc1cccc(CNS(=O)(=O)C2CC2)c1` [Compound I-51, N2-(3-aminosulfonyl)phenyl-N4-(3-cyclopropylsulfonylaminomethyl)phenyl-5-methyl-2,4-pyrimidinediamine], the figures for the IC50 in assay [1] and in assay [2] were 62.2 nM and 29.7 nM, respectively.
For `Cc1ccc(Nc2ncc(C)c(Nc3cccc(CNS(=O)(=O)C4CC4)c3)n2)cc1S(N)(=O)=O` [Compound I-52, N2-(3-aminosulfonyl-4-methyl)phenyl-N4-(3-cyclopropylsulfonylaminomethyl)phenyl-5-methyl-2,4-pyrimidinediamine], in that order: 68.5 nM and 66.2 nM.
Taken in the same sequence, the figures for `Cc1cnc(Nc2cccc(S(N)(=O)=O)c2)nc1Nc1ccc(CCNS(=O)(=O)C2CC2)cc1` [Compound I-54, N2-(3-aminosulfonyl)phenyl-N4-[4-(2-cyclopropylsulfonylamino)ethyl]phenyl-5-methyl-2,4-pyrimidinediamine] were 94.3 nM and 47 nM.
Turning to `Cc1ccc(Nc2ncc(C)c(Nc3ccc(CCNS(=O)(=O)C4CC4)cc3)n2)cc1S(N)(=O)=O` [Compound I-55, N2-(3-aminosulfonyl-4-methyl)phenyl-N4-[4-(2-cyclopropylsulfonylamino)ethyl]phenyl-5-methyl-2,4-pyrimidinediamine], the half-inhibitory concentration (IC50) in assay [1] is 78.8 nM; in assay [2], 84.5 nM.
Taken in the same sequence, the figures for `Cc1ccc(Nc2ncc(F)c(Nc3ccc(CNS(=O)(=O)C(C)C)cc3)n2)cc1S(N)(=O)=O` [Compound I-67, N2-(3-aminosulfonyl-4-methyl)phenyl-5-fluoro-N4-(4-isopropylsulfonylaminomethyl)phenyl-2,4-pyrimidinediamine] were 82.4 nM and 84.5 nM.
As for `NS(=O)(=O)c1ccc(Nc2ncc(F)c(Nc3ccc(CNS(=O)(=O)C4CCCC4)cc3)n2)cc1` [Compound I-68, N2-(4-aminosulfonyl)phenyl-N4-(4-cyclopentylsulfonylaminomethyl)phenyl-5-fluoro-2,4-pyrimidinediamine], the half-maximal inhibitory concentration (IC50) amounted to 94 nM in assay [1] and 102 nM in assay [2].
For `NS(=O)(=O)c1cccc(Nc2ncc(F)c(Nc3ccc(CNS(=O)(=O)C4CCCC4)cc3)n2)c1` [Compound I-69, N2-(3-aminosulfonyl)phenyl-N4-(4-cyclopentylsulfonylaminomethyl)phenyl-5-fluoro-2,4-pyrimidinediamine], in that order: 51.5 nM and 50 nM.
Taken in the same sequence, the figures for `Cc1ccc(Nc2ncc(F)c(Nc3ccc(CNS(=O)(=O)C4CCCC4)cc3)n2)cc1S(N)(=O)=O` [Compound I-70, N2-(3-aminosulfonyl-4-methyl)phenyl-N4-(4-cyclopentylsulfonylaminomethyl)phenyl-5-fluoro-2,4-pyrimidinediamine] were 43 nM and 150 nM.
For `NS(=O)(=O)c1ccc(Nc2ncc(F)c(Nc3ccc(CNS(=O)(=O)C4CCCCC4)cc3)n2)cc1` [Compound I-71, N2-(4-aminosulfonyl)phenyl-N4-(4-cyclohexylsulfonylaminomethyl)phenyl-5-fluoro-2,4-pyrimidinediamine], in that order: 120 nM and 132 nM.
For the compound `NS(=O)(=O)c1cccc(Nc2ncc(F)c(Nc3ccc(CNS(=O)(=O)C4CCCCC4)cc3)n2)c1` [Compound I-72, N2-(3-aminosulfonyl)phenyl-N4-(4-cyclohexylsulfonylaminomethyl)phenyl-5-fluoro-2,4-pyrimidinediamine], the figures for the half-maximal inhibitory concentration (IC50) in assay [1] and in assay [2] were 56.9 nM and 25.1 nM, respectively.

By IC50 is commonly meant the concentration at which inhibition is half-maximal. Low values mean greater potency in that assay, high ones weaker potency in that assay.
